# Experimental data: ChEMBL document CHEMBL5649169 (ChemMedChem, 2018)
# Tests used:
# Ephrin type-A receptor 5 = Ephrin type-A receptor 5 (Homo sapiens, UniProt P54756); assay: Inhibition of Nano Luc-fused full length C-terminal EPHA5 (unknown origin) expressed in HEK293T cells using NanoGlo as substrate incubated for 2 hrs in presence of tracer by NanoBRET assay; assay type: cell-based
# [1] = target: NADH dehydrogenase [ubiquinone] iron-sulfur protein 7, mitochondrial (Homo sapiens) (UniProt O75251); also: assay method not described here
# [2] = target: Transitional endoplasmic reticulum ATPase (Homo sapiens) (UniProt P55072); also: assay method not described here
# [3] = target: Heterogeneous nuclear ribonucleoprotein A3 (Homo sapiens) (UniProt P51991); also: assay method not described here
# [4] = target: Small ribosomal subunit protein mS27 (Homo sapiens) (UniProt Q92552); also: assay method not described here
# [5] = target: Phosphatidylinositol 5-phosphate 4-kinase type-2 alpha (Homo sapiens) (UniProt P48426); also: assay method not described here
# [6] = target: Heterogeneous nuclear ribonucleoproteins A2/B1 (Homo sapiens) (UniProt P22626); also: assay method not described here
# Chain of Heterogeneous nuclear ribonucleoproteins A2/B1 (Homo sapiens) (P22626 whole entry): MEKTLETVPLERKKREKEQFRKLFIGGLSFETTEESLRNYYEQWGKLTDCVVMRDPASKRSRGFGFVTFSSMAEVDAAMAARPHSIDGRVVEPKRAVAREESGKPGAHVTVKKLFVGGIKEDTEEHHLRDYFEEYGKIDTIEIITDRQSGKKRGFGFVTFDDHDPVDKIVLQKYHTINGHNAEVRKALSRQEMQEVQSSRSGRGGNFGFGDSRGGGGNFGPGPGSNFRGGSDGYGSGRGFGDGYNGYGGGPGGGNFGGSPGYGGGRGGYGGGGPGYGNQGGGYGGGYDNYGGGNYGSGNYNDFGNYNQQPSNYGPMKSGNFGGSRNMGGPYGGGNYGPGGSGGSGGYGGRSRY
# [7] = target: Small ribosomal subunit protein eS27 (Homo sapiens) (UniProt P42677); also: assay method not described here
# [8] = target: Large ribosomal subunit protein uL18 (Homo sapiens) (UniProt P46777); also: assay method not described here
# [9] = target: Tubulin beta-3 chain (Homo sapiens) (UniProt Q13509); also: assay method not described here
# [10] = target: Serine/threonine-protein kinase TAO1 (Homo sapiens) (UniProt Q7L7X3); also: assay method not described here
# [11] = target: Thioredoxin-related transmembrane protein 1 (Homo sapiens) (UniProt Q9H3N1); also: assay method not described here
# [12] = target: Glucose-6-phosphate 1-dehydrogenase (Homo sapiens) (UniProt P11413); also: assay method not described here
# Chain of Glucose-6-phosphate 1-dehydrogenase (Homo sapiens) (P11413 whole entry): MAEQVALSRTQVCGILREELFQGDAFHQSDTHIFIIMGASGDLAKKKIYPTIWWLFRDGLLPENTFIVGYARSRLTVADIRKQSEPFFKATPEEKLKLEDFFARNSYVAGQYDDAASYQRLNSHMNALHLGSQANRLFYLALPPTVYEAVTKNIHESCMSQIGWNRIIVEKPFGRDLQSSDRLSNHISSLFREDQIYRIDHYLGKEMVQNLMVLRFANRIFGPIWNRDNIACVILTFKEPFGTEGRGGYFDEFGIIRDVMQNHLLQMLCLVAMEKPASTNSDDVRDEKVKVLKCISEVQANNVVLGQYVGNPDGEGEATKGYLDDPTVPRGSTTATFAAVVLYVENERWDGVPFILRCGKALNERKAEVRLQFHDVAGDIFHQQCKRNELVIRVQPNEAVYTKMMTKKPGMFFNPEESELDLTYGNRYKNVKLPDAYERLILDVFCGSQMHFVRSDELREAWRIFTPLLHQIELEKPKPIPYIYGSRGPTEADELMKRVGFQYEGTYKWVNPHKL
# [13] = target: Neuroblast differentiation-associated protein AHNAK (Homo sapiens) (UniProt Q09666); also: assay method not described here
# [14] = target: Holocytochrome c-type synthase (Homo sapiens) (UniProt P53701); also: assay method not described here
# [15] = target: Large ribosomal subunit protein eL27 (Homo sapiens) (UniProt P61353); also: assay method not described here
# [16] = target: ATPase family AAA domain-containing protein 3A (Homo sapiens) (UniProt Q9NVI7); also: assay method not described here
# Chain of ATPase family AAA domain-containing protein 3A (Homo sapiens) (Q9NVI7 whole entry, the tested form may be a part): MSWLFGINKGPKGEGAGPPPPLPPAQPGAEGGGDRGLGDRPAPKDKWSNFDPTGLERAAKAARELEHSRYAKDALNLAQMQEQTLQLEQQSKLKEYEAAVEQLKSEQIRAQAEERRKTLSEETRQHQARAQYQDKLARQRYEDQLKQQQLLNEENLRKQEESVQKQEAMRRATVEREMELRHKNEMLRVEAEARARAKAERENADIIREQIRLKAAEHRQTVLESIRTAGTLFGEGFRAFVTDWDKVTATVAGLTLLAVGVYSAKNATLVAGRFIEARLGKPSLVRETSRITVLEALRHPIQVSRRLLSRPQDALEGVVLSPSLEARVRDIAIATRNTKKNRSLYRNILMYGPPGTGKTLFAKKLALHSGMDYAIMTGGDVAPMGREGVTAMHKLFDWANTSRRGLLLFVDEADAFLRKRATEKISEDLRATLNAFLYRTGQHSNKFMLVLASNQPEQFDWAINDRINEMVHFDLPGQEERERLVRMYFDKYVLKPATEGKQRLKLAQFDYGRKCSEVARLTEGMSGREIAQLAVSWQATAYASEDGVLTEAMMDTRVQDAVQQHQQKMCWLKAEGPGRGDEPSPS
# [17] = target: Pyruvate dehydrogenase E1 component subunit alpha, somatic form, mitochondrial (Homo sapiens) (UniProt P08559); also: assay method not described here
# Chain of Pyruvate dehydrogenase E1 component subunit alpha, somatic form, mitochondrial (Homo sapiens) (P08559 whole entry): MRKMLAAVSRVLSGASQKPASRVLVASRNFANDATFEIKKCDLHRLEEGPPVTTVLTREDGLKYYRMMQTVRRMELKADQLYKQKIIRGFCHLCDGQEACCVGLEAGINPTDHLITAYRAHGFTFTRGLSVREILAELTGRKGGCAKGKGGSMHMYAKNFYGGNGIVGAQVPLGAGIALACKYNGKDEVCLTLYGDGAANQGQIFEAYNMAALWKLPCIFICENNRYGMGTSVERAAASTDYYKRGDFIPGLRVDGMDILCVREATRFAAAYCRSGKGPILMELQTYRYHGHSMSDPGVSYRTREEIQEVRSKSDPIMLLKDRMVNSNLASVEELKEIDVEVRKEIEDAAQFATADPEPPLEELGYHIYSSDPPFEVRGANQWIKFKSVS
# Elongin-C (Homo sapiens) = Elongin-C (Homo sapiens) (UniProt Q15369); also: assay method not described here
# Chain of Elongin-C (Homo sapiens) (Q15369 whole entry, looked up): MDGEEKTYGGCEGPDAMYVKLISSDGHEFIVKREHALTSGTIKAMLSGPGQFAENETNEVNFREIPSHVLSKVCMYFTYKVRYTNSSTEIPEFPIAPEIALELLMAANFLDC
# Nucleolin (Homo sapiens) = Nucleolin (Homo sapiens) (UniProt P19338); also: assay method not described here
# [18] = target: Heterogeneous nuclear ribonucleoprotein D0 (Homo sapiens) (UniProt Q14103); also: assay method not described here
# [19] = target: Delta(14)-sterol reductase LBR (Homo sapiens) (UniProt Q14739); also: assay method not described here
# [20] = target: Small ribosomal subunit protein uS12 (Homo sapiens) (UniProt P62266); also: assay method not described here
# [21] = target: Serine/arginine-rich splicing factor 7 (Homo sapiens) (UniProt Q16629); also: assay method not described here
# Chain of Serine/arginine-rich splicing factor 7 (Homo sapiens) (Q16629 whole entry): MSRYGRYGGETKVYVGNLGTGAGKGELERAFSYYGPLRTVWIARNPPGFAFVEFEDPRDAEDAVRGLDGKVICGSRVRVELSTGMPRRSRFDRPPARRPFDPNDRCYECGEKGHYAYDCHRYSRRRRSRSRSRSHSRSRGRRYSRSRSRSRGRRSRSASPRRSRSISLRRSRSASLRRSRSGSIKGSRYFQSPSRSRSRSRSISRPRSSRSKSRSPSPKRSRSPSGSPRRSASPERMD
# [22] = target: NBAS subunit of NRZ tethering complex (Homo sapiens) (UniProt A2RRP1); also: assay method not described here
# Lamin-B1 (Homo sapiens) = Lamin-B1 (Homo sapiens) (UniProt P20700); also: assay method not described here
# Chain of Lamin-B1 (Homo sapiens) (P20700 whole entry, the tested form may be a part): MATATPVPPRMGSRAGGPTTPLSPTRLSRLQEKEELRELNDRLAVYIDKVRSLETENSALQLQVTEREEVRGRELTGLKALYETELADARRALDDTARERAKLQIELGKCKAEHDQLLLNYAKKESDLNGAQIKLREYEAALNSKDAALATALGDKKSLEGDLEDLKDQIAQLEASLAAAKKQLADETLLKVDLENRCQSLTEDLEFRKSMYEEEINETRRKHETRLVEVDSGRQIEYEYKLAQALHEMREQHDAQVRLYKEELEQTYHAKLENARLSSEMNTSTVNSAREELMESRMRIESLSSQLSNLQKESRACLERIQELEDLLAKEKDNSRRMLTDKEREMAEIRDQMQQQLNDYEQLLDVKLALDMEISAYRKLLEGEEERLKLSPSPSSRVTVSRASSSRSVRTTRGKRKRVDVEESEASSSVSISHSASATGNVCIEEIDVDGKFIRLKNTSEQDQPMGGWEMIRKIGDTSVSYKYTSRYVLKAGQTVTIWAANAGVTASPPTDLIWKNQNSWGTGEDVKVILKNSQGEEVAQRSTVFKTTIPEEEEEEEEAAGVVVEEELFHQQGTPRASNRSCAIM
# [23] = target: C2 domain-containing protein 5 (Homo sapiens) (UniProt Q86YS7); also: assay method not described here
# [24] = target: Dual specificity protein kinase CLK1 (Homo sapiens) (UniProt P49759); also: assay method not described here
# [25] = target: Transferrin receptor protein 1 (Homo sapiens) (UniProt P02786); also: assay method not described here
# [26] = target: DNA replication licensing factor MCM6 (Homo sapiens) (UniProt Q14566); also: assay method not described here
# [27] = target: Clathrin light chain A (Homo sapiens) (UniProt P09496); also: assay method not described here
# Chain of Clathrin light chain A (Homo sapiens) (P09496 whole entry): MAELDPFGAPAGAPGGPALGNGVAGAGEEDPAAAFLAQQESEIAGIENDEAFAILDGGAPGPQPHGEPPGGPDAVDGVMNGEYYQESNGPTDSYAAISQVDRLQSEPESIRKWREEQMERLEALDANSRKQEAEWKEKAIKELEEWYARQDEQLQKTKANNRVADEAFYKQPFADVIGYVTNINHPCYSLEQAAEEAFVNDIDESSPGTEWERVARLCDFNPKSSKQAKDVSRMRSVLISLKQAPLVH
# [28] = target: Serine/threonine-protein kinase mTOR (Homo sapiens) (UniProt P42345); also: assay method not described here
# [29] = target: T-complex protein 1 subunit gamma (Homo sapiens) (UniProt P49368); also: assay method not described here
# [30] = target: Small ribosomal subunit protein uS9 (Homo sapiens) (UniProt P62249); also: assay method not described here
# [31] = target: Activin receptor type-2B (Homo sapiens) (UniProt Q13705); also: assay method not described here
# [32] = target: T-complex protein 1 subunit beta (Homo sapiens) (UniProt P78371); also: assay method not described here
# [33] = target: Peptidyl-prolyl cis-trans isomerase FKBP1A (Homo sapiens) (UniProt P62942); also: assay method not described here
# [34] = target: Tyrosine-protein kinase ABL1 (Homo sapiens, UniProt P00519); also: assay method not described here
# Chain of Tyrosine-protein kinase ABL1 (P00519 whole entry): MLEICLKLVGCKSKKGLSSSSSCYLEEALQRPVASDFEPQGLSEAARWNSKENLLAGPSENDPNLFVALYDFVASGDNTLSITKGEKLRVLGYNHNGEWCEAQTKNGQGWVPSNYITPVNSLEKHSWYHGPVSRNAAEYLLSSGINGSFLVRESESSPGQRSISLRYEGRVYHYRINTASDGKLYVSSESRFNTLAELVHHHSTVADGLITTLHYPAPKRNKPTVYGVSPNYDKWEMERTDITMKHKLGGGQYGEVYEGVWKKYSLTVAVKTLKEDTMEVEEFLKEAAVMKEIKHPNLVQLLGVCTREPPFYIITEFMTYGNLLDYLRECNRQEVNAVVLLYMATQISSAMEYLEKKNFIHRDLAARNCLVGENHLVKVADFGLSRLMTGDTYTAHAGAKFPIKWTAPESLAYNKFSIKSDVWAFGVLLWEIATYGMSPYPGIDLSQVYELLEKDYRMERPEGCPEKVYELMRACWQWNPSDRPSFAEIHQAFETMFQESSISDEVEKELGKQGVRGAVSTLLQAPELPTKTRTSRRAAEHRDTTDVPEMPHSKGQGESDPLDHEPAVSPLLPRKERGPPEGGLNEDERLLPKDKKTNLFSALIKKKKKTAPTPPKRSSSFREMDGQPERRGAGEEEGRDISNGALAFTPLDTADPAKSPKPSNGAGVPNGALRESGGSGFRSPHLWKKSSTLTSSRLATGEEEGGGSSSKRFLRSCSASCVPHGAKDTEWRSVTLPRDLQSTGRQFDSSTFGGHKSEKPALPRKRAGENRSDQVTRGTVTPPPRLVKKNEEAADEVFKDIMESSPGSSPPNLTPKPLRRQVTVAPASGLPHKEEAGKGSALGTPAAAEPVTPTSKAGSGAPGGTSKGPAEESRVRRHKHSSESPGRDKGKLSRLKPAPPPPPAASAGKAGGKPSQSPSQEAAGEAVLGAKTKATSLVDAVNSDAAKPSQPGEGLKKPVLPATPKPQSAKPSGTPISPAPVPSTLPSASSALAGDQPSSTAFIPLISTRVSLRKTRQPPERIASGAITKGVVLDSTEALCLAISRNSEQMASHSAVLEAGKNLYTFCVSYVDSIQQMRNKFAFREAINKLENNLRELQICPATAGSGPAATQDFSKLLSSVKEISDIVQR
# [35] = target: Alpha-internexin (Homo sapiens) (UniProt Q16352); also: assay method not described here
# [36] = target: Tyrosine-protein kinase HCK (Homo sapiens) (UniProt P08631); also: assay method not described here
# [37] = target: MAP/microtubule affinity-regulating kinase 3 (Homo sapiens) (UniProt P27448); also: assay method not described here
# Chain of MAP/microtubule affinity-regulating kinase 3 (Homo sapiens) (P27448 whole entry, looked up): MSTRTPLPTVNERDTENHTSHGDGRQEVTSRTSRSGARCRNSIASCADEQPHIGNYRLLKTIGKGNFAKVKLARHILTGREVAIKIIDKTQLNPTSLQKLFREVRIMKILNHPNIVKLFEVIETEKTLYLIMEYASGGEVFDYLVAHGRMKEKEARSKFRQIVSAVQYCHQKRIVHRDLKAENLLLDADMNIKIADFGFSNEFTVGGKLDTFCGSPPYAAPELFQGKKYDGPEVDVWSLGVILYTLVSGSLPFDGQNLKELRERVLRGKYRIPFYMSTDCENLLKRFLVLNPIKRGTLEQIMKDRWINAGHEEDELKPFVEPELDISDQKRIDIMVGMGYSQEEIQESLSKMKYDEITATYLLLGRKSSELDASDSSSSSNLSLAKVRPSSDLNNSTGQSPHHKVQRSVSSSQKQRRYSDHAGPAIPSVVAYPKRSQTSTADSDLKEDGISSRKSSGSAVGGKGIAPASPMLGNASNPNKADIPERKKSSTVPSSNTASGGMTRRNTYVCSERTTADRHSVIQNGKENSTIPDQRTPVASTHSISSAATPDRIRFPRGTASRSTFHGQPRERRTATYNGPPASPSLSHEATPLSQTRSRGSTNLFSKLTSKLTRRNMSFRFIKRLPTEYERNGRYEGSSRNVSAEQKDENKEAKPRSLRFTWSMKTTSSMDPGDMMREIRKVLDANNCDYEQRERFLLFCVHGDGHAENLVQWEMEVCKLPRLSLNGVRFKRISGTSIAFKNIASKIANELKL
# [38] = target: Sodium/potassium-transporting ATPase subunit beta-1 (Homo sapiens) (UniProt P05026); also: assay method not described here
# [39] = target: UDP-glucose:glycoprotein glucosyltransferase 1 (Homo sapiens) (UniProt Q9NYU2); also: assay method not described here
# [40] = target: Mitogen-activated protein kinase 3 (Homo sapiens) (UniProt P27361); also: assay method not described here
# [41] = target: Sister chromatid cohesion protein PDS5 homolog A (Homo sapiens) (UniProt Q29RF7); also: assay method not described here
compound,measurement,setting,value
Cc1ccc(C(=O)Nc2cccc(C(F)(F)F)c2)cc1Nc1nc(-c2cccnc2)nc2c1cnn2C,IC50,Ephrin type-A receptor 5,0.0028 µM
same,ED50,[1],0.00309 µM
same,ED50,[2],5.07 µM
same,ED50,[3],0.174 µM
same,ED50,[4],0.099 µM
same,ED50,[5],0.0993 µM
same,ED50,[6],0.0823 µM
same,ED50,[7],7.65 µM
same,ED50,[8],0.862 µM
same,ED50,[9],3.06 µM
same,ED50,[10],11.2 µM
same,ED50,[11],219 µM
same,ED50,[12],81.4 µM
same,ED50,[13],4.79 µM
same,ED50,[14],0.0888 µM
same,ED50,[15],5.26 µM
same,ED50,[16],0.0089 µM
same,ED50,[17],0.101 µM
same,ED50,Elongin-C (Homo sapiens),122 µM
same,ED50,Nucleolin (Homo sapiens),2.79 µM
same,ED50,[18],1.15 µM
same,ED50,[19],5.78 µM
same,ED50,[20],0.00873 µM
same,ED50,[21],0.00758 µM
same,ED50,[22],0.0417 µM
same,ED50,Lamin-B1 (Homo sapiens),13.8 µM
same,ED50,[23],0.0177 µM
same,ED50,[24],32.5 µM
same,ED50,[25],0.1 µM
same,ED50,[26],11.1 µM
same,ED50,[27],0.55 µM
same,ED50,[28],11.6 µM
same,ED50,[29],0.0644 µM
same,ED50,[30],0.0497 µM
same,ED50,[31],4.77 µM
same,ED50,[32],0.0178 µM
same,ED50,[33],94 µM
same,ED50,[34],1.66 µM
same,ED50,[35],0.306 µM
same,ED50,[36],22 µM
same,ED50,[37],19.1 µM
same,ED50,[38],0.0536 µM
same,ED50,[39],54.5 µM
same,ED50,[40],0.0457 µM
same,ED50,[41],0.978 µM
Cc1ccc(C(=O)Nc2cccc(C(F)(F)F)c2)cc1Nc1nc(-c2cccnc2)nc2nn(C)cc12,IC50,Ephrin type-A receptor 5,0.208 µM
same,ED50,[1],1.81 µM
same,ED50,[2],0.0706 µM
same,ED50,[3],1.07 µM
same,ED50,[4],0.835 µM
same,ED50,[5],83.4 µM
same,ED50,[6],0.0115 µM
same,ED50,[7],0.47 µM
same,ED50,[8],11.5 µM
same,ED50,[9],0.106 µM
same,ED50,[10],0.0178 µM
same,ED50,[11],131 µM
same,ED50,[12],0.107 µM
same,ED50,[13],0.11 µM
same,ED50,[14],0.144 µM
same,ED50,[15],0.048 µM
same,ED50,[16],7.99 µM
same,ED50,[17],0.492 µM
same,ED50,Elongin-C (Homo sapiens),0.682 µM
same,ED50,Nucleolin (Homo sapiens),30.3 µM
same,ED50,[18],0.0267 µM
same,ED50,[19],0.0816 µM
same,ED50,[20],0.000624 µM
same,ED50,[21],0.258 µM
same,ED50,[22],22.4 µM
same,ED50,Lamin-B1 (Homo sapiens),0.42 µM
same,ED50,[23],0.0663 µM
same,ED50,[24],0.000313 µM
same,ED50,[25],7.34 µM
same,ED50,[26],0.343 µM
same,ED50,[27],0.0659 µM
same,ED50,[28],0.443 µM
same,ED50,[29],0.09 µM
same,ED50,[30],0.345 µM
same,ED50,[31],0.00453 µM
same,ED50,[32],0.0532 µM
same,ED50,[33],0.00568 µM
same,ED50,[34],1.34 µM
same,ED50,[35],1.7 µM
same,ED50,[36],0.0555 µM
same,ED50,[37],0.409 µM
same,ED50,[38],0.0335 µM
same,ED50,[39],0.0435 µM
same,ED50,[40],2500 µM
same,ED50,[41],2.82 µM
